According to PubChem BioAssay (NCI):
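Interpolation was linear, between the two tested concentrations surrounding the appropriate level; five concentrations were tested over 48 hours in 96-well plates. At the GI50, growth is halved. TGI: total growth inhibition.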

Assays:
Assay in all cases: NCI-60 cell line screen, 48 h
[1] = system: A549 NSCLC
[2] = system: COLO 205 colon
[3] = system: K-562 leukemia
[4] = system: LOX IMVI melanoma
[5] = system: NCI-H460 lung
[6] = system: RPMI-8226 leukemia
[7] = system: SNB-75 CNS
[8] = system: UO-31 renal
[9] = system: HOP-92 NSCLC
[10] = system: OVCAR-4 ovarian

Row | Compound | TGI [1] [µM] | TGI [2] [µM] | TGI [3] [µM] | TGI [4] [µM] | TGI [5] [µM] | TGI [6] [µM] | TGI [7] [µM] | TGI [8] [µM] | TGI [9] [µM] | TGI [10] [µM] | GI50 [1] [µM] | GI50 [2] [µM] | GI50 [9] [µM] | GI50 [4] [µM] | GI50 [5] [µM] | GI50 [10] [µM] | GI50 [6] [µM] | GI50 [7] [µM] | GI50 [8] [µM] | GI50 [3] [µM]
1 | COc1ccc(C(=O)Nc2ccccc2)cc1[N+](=O)[O-] | > 100 | > 100 | > 100 | > 100 | > 100 | > 100 | > 100 | > 100 | – | – | – | – | – | – | – | – | – | – | – | –
2 | CCCCCNC(=O)C1C(=O)N(CCCCC)C(=O)/C1=N\N (stereo not given) | > 100 | > 100 | > 100 | – | > 100 | – | – | 81.8 | 95.4 | > 100 | – | – | – | – | – | – | – | – | – | –
3 | COC(=O)[C@@]12C3=NO[C@]1(C(=O)OC)C(O[Si](C)(C)C(C)(C)C)C1OC(C)(C)OC1[C@@H]2[C@@H](OCc1ccccc1)CC3 (stereo not given in full) | > 100 | > 100 | > 100 | > 100 | – | > 100 | > 100 | > 100 | 17.3 | > 100 | – | – | – | – | – | – | – | – | – | –
4 | CNS(=O)(=O)NN(C)S(=O)(=O)c1ccc(C)cc1 | > 100 | > 100 | – | – | > 100 | > 100 | – | > 100 | > 100 | > 100 | – | – | – | – | – | – | – | – | – | –
5 | COC(=O)C1(C)CCc2c(ccc3ccccc23)C1=O (stereo not given) | > 100 | 42.2 | > 100 | > 100 | > 100 | 60.6 | > 100 | > 100 | > 100 | – | – | – | – | – | – | – | – | – | – | –
6 | Nc1ncn([C@@H]2C=C(CO)C(O)C2O)c(=O)n1 (stereo not given in full) | > 100 | > 100 | > 100 | > 100 | > 100 | > 100 | – | > 100 | > 100 | > 100 | – | – | – | – | – | – | – | – | – | –
7 | CC1(C)CC[C@]2(C(=O)O)CCC3(C)C(=CCC4[C@@]5(C)CC[C@H](OC6OCC(O)C(O)C6OC6OC(CO)C(O)C(O)C6O)C(C)(C)C5CC[C@]43C)C2C1 (stereo not given in full) | 3.53 | 3.49 | – | 4.18 | 4.22 | 6.71 | 4.6 | 3.71 | 3.69 | 3.05 | – | – | – | – | – | – | – | – | – | –
8 | c1ccc(CNc2nc(Nc3ccc(-c4nc5ccccc5[nH]4)cc3)c3cn[nH]c3n2)cc1 | 8.92 | 3.72 | – | 3.36 | 5.76 | 5.51 | 47.1 | 6.02 | 5.56 | 7.14 | 2.89 | 1.78 | 1.99 | 1.69 | 2.18 | 2.28 | 2.15 | 5.12 | 2.02 | –
9 | CC(=O)[CH-]C(=O)c1ccccc1.CC(=O)[CH-]C(=O)c1ccccc1.[O-]Cc1cccs1.[O-]Cc1cccs1.[Ti+4] | > 100 | – | > 100 | 58 | > 100 | 71.3 | > 100 | > 100 | – | > 100 | 97.9 | – | – | 18.1 | 29.4 | > 100 | 27.1 | 73.1 | > 100 | 31.2
10 | COc1cc2nc(-c3ccc(Cl)cc3)cc(OCCCN3CCC(O)CC3)c2cc1OC | 14.8 | 4.11 | 6.75 | 0.589 | 14 | – | 5.43 | 5.97 | 6.79 | > 100 | 2.2 | 0.532 | 1.25 | 0.227 | 0.955 | 4.34 | – | 1.76 | 1.72 | 1.63
